Experiments:
Experiment in all cases: normalised response (% of control), CellTox Green; higher = less cell death (100 = DMSO, 0 = benzethonium chloride kill control)
Conditions in all cases: incubation time: 72 h
[1] = tested on: HCC1143
Method in brief: (§1)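 Breast cancer cell lines in 20 µl suspension were added to 384-well plates containing compound at 5 concentrations, spaced in 10-fold steps across a 10,000-fold range chosen for each compound, and incubated for 72 h. CellTox Green fluorescence was read at 485/520 nm, followed by CellTiter-Glo luminescence after 10 min at room temperature. Signals on each plate were normalised so that 0.1 % DMSO equals 100 and a positive kill control equals 0. Every value in the table is the normalised signal at one concentration of the series.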

[2] = tested on: HCC1599
Method in brief: as §1

[3] = tested on: CAL-120
Method in brief: as §1

[4] = tested on: BT-474
Method in brief: as §1

[5] = tested on: HDQ-P1
Method in brief: as §1

[6] = tested on: MDA-MB-231
Method in brief: as §1

[7] = tested on: CAL-85-1
Method in brief: as §1

[8] = tested on: MDA-MB-436
Method in brief: as §1

[9] = tested on: CAL-51
Method in brief: as §1

[10] = tested on: CAL-148
Method in brief: as §1

[11] = tested on: MDA-MB-468
Method in brief: as §1

[12] = tested on: HCC1937
Method in brief: as §1

SMILES | normalised response [1] | normalised response [2] | normalised response [3] | normalised response [4] | normalised response [5] | normalised response [6] | normalised response [7] | normalised response [8] | normalised response [9] | normalised response [10] | normalised response [11] | normalised response [12]
Cc1c(N)nc([C@H](CC(N)=O)NC[C@H](N)C(N)=O)nc1C(=O)N[C@H](C(=O)N[C@H](C)[C@@H](O)[C@H](C)C(=O)N[C@H](C(=O)NCCc1nc(-c2nc(C(=O)NCCC[S+](C)C)cs2)cs1)[C@@H](C)O)[C@@H](OC1OC(CO)C(O)C(O)C1OC1OC(CO)C(O)C(OC(N)=O)C1O)c1cnc[nH]1 (stereo partly drawn) [Bleomycin] (1000 nM) | 99.9% | 94.8% | 92.9% | 98.2% | 54.8% | 67.9% | 92.7% | 84.5% | 44.5% | 58.4% | 138% | –
Cc1c(N)nc([C@H](CC(N)=O)NC[C@H](N)C(N)=O)nc1C(=O)N[C@H](C(=O)N[C@H](C)[C@@H](O)[C@H](C)C(=O)N[C@H](C(=O)NCCc1nc(-c2nc(C(=O)NCCC[S+](C)C)cs2)cs1)[C@@H](C)O)[C@@H](OC1OC(CO)C(O)C(O)C1OC1OC(CO)C(O)C(OC(N)=O)C1O)c1cnc[nH]1 (stereo partly drawn) [Bleomycin] (10000 nM) | 93.6% | 84% | 99.4% | 93.2% | 95.6% | 78% | 81.7% | 68% | 43.9% | 47.9% | 201% | 80.1%
Cc1cc2c(F)c(Oc3ncnn4cc(OC[C@@H](C)O)c(C)c34)ccc2[nH]1 [Brivanib] (100 nM) | 79.8% | 99.8% | 104% | 100% | 106% | 115% | 103% | 81.2% | 99.4% | 104% | 100% | 101%
Cc1cc2c(F)c(Oc3ncnn4cc(OC[C@@H](C)O)c(C)c34)ccc2[nH]1 [Brivanib] (1000 nM) | 104% | 80.2% | 100% | 97.9% | 68.8% | 102% | 67.4% | 68.3% | 101% | 99.3% | 99.9% | 112%
CCCCCOC(=O)Nc1nc(=O)n([C@@H]2O[C@H](C)[C@@H](O)[C@H]2O)cc1F [Capecitabine] (1000 nM) | 109% | 96.3% | 102% | 99.1% | 110% | – | 109% | 100% | 113% | 76.8% | – | 71.6%
CCCCCOC(=O)Nc1nc(=O)n([C@@H]2O[C@H](C)[C@@H](O)[C@H]2O)cc1F [Capecitabine] (10000 nM) | 122% | 102% | 90.2% | 97.2% | 94.7% | 110% | 87.2% | 103% | 99.4% | 99.5% | 100% | 87.1%
CC(C)C[C@H](NC(=O)[C@H](CCc1ccccc1)NC(=O)CN1CCOCC1)C(=O)N[C@@H](Cc1ccccc1)C(=O)N[C@@H](CC(C)C)C(=O)[C@@]1(C)CO1 [Carfilzomib] (100 nM) | 82.7% | 97.3% | 11.9% | 61.4% | -12.1% | -17.7% | -43% | 18.8% | 6.93% | 14.6% | -95.8% | 32.5%
CC(C)C[C@H](NC(=O)[C@H](CCc1ccccc1)NC(=O)CN1CCOCC1)C(=O)N[C@@H](Cc1ccccc1)C(=O)N[C@@H](CC(C)C)C(=O)[C@@]1(C)CO1 [Carfilzomib] (1000 nM) | 72.1% | 99.5% | -0.18% | 45.7% | -14.6% | -0.32% | -74.2% | 38.2% | 15.1% | 12.2% | -84% | 32.8%
Nc1nc(Cl)nc2c1ncn2[C@@H]1O[C@H](CO)[C@@H](O)[C@@H]1F [Clofarabine] (1000 nM) | 112% | 81.2% | 103% | 100% | 101% | 111% | 88.3% | 105% | 12.1% | 67.1% | 145% | 109%
Nc1nc(Cl)nc2c1ncn2[C@@H]1O[C@H](CO)[C@@H](O)[C@@H]1F [Clofarabine] (10000 nM) | 106% | 93.9% | 105% | 105% | 112% | 90.7% | 60.5% | 65.6% | 40.6% | 65.1% | 73.1% | 75.6%
CCN(CC)CCOc1ccc(C(=C(Cl)c2ccccc2)c2ccccc2)cc1 [Clomifene] (1000 nM) | 82.3% | 100% | 99.7% | 97.6% | 90.2% | 96% | 99.8% | 83.7% | 110% | 104% | 68.9% | 82.8%
CCN(CC)CCOc1ccc(C(=C(Cl)c2ccccc2)c2ccccc2)cc1 [Clomifene] (10000 nM) | 112% | 48.6% | – | 5.17% | – | -87.9% | 25.3% | 89.1% | 109% | 79.6% | 93.8% | -34.5%
C[C@@H]1C[C@H]2[C@@H]3CCC4=CC(=O)C=C[C@]4(C)[C@@]3(F)[C@@H](O)C[C@]2(C)[C@@]1(O)C(=O)CO [Dexamethasone] (1000 nM) | 107% | 87% | 98.4% | 99.3% | 56.1% | 141% | 98.8% | 81.5% | 110% | – | 129% | 106%
C[C@@H]1C[C@H]2[C@@H]3CCC4=CC(=O)C=C[C@]4(C)[C@@]3(F)[C@@H](O)C[C@]2(C)[C@@]1(O)C(=O)CO [Dexamethasone] (10000 nM) | 51.4% | 94.4% | 102% | 94% | 99.2% | 139% | 130% | 97.4% | 103% | 100% | 135% | 61.1%
CC(C)C(=O)Nc1ccc([N+](=O)[O-])c(C(F)(F)F)c1 [Flutamide] (1000 nM) | 99.2% | 94.6% | 102% | 99.5% | 114% | 98.5% | 101% | 99.7% | 98.4% | 104% | 144% | 118%
CC(C)C(=O)Nc1ccc([N+](=O)[O-])c(C(F)(F)F)c1 [Flutamide] (10000 nM) | 96.4% | 103% | 98.1% | 92.6% | 92.3% | 112% | 103% | 75.1% | 100% | – | 124% | 101%
NC(=O)NO [Hydroxyurea] (10000 nM) | 98.7% | 103% | 95.1% | 100% | – | 113% | 116% | 84.6% | 69.1% | 98.2% | 81.7% | –
NC(=O)NO [Hydroxyurea] (100000 nM) | 118% | 104% | 101% | 97.4% | 110% | 118% | 85.8% | – | 5.76% | 88.3% | 104% | 111%
O=NN(CCCl)C(=O)NC1CCCCC1 [Lomustine] (10000 nM) | 108% | 103% | 92.5% | 95.2% | 98.9% | – | 108% | 86.5% | 108% | 94.2% | 77.9% | 57.4%
O=C(O)CC[C@H]1CC[C@@](c2cc(F)ccc2F)(S(=O)(=O)c2ccc(Cl)cc2)CC1 [MK-0752] (1000 nM) | 88.8% | 109% | 102% | 104% | 110% | 111% | 70.6% | 96.9% | 118% | – | 106% | 104%
NC(=O)c1cccc2cn(-c3ccc([C@@H]4CCCNC4)cc3)nc12 [MK-4827] (1000 nM) | 81.1% | 99.2% | 98.5% | 101% | – | 120% | 95.6% | 86.7% | 82.8% | 80.5% | 110% | 104%
NC(=O)c1cccc2cn(-c3ccc([C@@H]4CCCNC4)cc3)nc12 [MK-4827] (10000 nM) | 127% | 97.4% | 97.3% | 97.5% | 97.9% | 139% | 70.3% | 105% | 63.6% | 79.6% | 116% | –
CO[C@H](C(=O)[C@@H](O)[C@@H](C)O)[C@@H]1Cc2cc3cc(O[C@H]4C[C@@H](O[C@@H]5C[C@@H](O)[C@H](O)[C@@H](C)O5)[C@H](O)[C@@H](C)O4)c(C)c(O)c3c(O)c2C(=O)[C@H]1O[C@H]1C[C@@H](O[C@@H]2C[C@@H](O)[C@@H](O[C@@H]3C[C@](C)(O)[C@H](O)[C@@H](C)O3)[C@@H](C)O2)[C@H](O)[C@@H](C)O1 [Plicamycin] (1000 nM) | 81.6% | 94.9% | 103% | 100% | 97.8% | 106% | 99.3% | – | 94.9% | 109% | – | 104%
CN1CCN(c2nc(C3=C(c4c[nH]c5ccccc45)C(=O)NC3=O)c3ccccc3n2)CC1 [Sotrastaurin] (10000 nM) | 93.5% | 102% | 94.2% | 98.4% | 102% | 115% | 128% | 68.3% | 94.2% | – | 194% | 68.4%
CC/C(=C(\c1ccccc1)c1ccc(OCCN(C)C)cc1)c1ccccc1 [Tamoxifen] (1000 nM) | 122% | 103% | 102% | 101% | – | 103% | 101% | 108% | 99.5% | 106% | 148% | –
CC/C(=C(\c1ccccc1)c1ccc(OCCN(C)C)cc1)c1ccccc1 [Tamoxifen] (10000 nM) | 108% | 80.4% | 83.5% | 9.58% | 105% | 13.6% | – | – | 105% | 80.1% | 7.06% | 3.06%
COc1cc2c(N3CCN(C(=O)Nc4ccc(OC(C)C)cc4)CC3)ncnc2cc1OCCCN1CCCCC1 [Tandutinib] (100 nM) | 93.2% | 91.2% | 97.3% | 96.3% | – | 105% | 110% | 94.2% | 96.4% | 100% | 134% | 112%
C[C@@H](C(=O)O)c1ccc(-c2ccccc2)c(F)c1 [Tarenflurbil] (1000 nM) | 105% | 96.3% | 100% | 97.1% | 65.7% | – | 87.9% | 60.6% | 114% | – | 112% | 115%
CC[C@@H]1C(=O)N(C)c2cnc(Nc3ccc(C(=O)N[C@H]4CC[C@H](N5CCN(CC6CC6)CC5)CC4)cc3OC)nc2N1C(C)C [Volasertib] (100 nM) | 81.8% | 72.2% | 89% | 94.5% | -27.2% | -0.74% | 57% | 64.2% | 46.4% | 31.8% | 85.1% | –

Reference: the supplement of paper PMC4862054
